Laboratory results reported in US6653304B2, “Cannabinoid receptor modulators, their processes of preparation, and use of cannabinoid receptor modulators for treating respiratory and non-respiratory diseases” (Bristol-Myers Squibb Co., priority 2000, dated 2003).

Test system: human lung epithelial cell lines H292 and A549
Experiment: Activation of lung epithelial cells
Assay type: cell-based
Method: (2) Activation of Lung Epithelial Cells
The ability of the cannabinoids to inhibit mucin, chemokine/cytokine production from lung epithelial cells is evaluated with human lung epithelial cell lines H292 and A549. Epithelial cells are cultured overnight in 48 well microtiter plates in complete RMPI […] (200 μl/well) at a density of 2×10^5 cells/ml. The media is removed and replaced with fresh media. Test compounds in 50 μl isotonic buffer are added and incubated for 1 hour at 37° C. Cell activation is triggered by the addition of a stimulatory agent comprising one of EGF, smoke conditioned media, TNF-α or IL-1β. In this assay, the IC50 for Win-55212-2<20 mcM. After a desired period of time (e.g., 24 h) the cell supernatants are removed and assayed for mucin cytokine and chemokines by ELISA. The cannabinoid agonists inhibit mucin and IL-8 production from lung epithelial cells.

SMILES: Cc1c(C(=O)c2cccc3ccccc23)c2cccc3c2n1[C@H](CN1CCOCC1)CO3 [Win-55212-2]
- activity in the lung epithelial cell assay: demonstrated activity
- IC50 (stimulated with EGF, smoke conditioned media, TNF-α or IL-1β, mucin, cytokine and chemokines by ELISA): < 20 µM
